{
  "source": "patent US7776854B2",
  "about": "“Benzazole derivatives for the treatment of scleroderma” (Merck Serono SA, priority 2001, dated 2010)",
  "key": {"[1]": {"test_system": "bleomycin-induced lung fibrosis", "assay": "Determination of bleomycin-induced body weight loss", "assay_type": "in vivo", "settings": "C57BL/6 mice", "protocol": "The objective of the present Assay is to determine the loss of body weight of mice which is usually triggered by bleomycin-induced lung fibrosis.\n(§1) Female 10- to 12-week-old C57BL/6 wild-type mice were intratracheally instilled with bleomycin (3.75 U/kg) dissolved in 10 μl saline to induce the fibrosis in the lungs. The treatment with a test compound started on day 0 and was continued daily—from day 0 (1 hour before the bleomycin instillation) to day 17. The test compound was administered orally at different dosages. Control mice were intratracheally instilled with saline on day 0. The body weight loss was recorded on a daily basis and the results of the determination are graphically represented in FIG. 1."}, "[2]": {"test_system": "bleomycin-induced lung inflammation", "assay": "Determination of bleomycin-induced pulmonary oedema (lung wet/dry weight difference)", "assay_type": "in vivo, mice", "protocol": "as §1\nLung fibrotic changes following instillation of bleomycin result from the infiltration of inflammatory cells like macrophages, lymphocytes and neutrophils into the lungs a well as an increase in pro-inflammatory cytokines such as TNFα. The pulmonary oedema is analyzed to determine whether a test compound affects the bleomycin-induced lung inflammation. What is determined is the difference wet/dry of the examined lungs, where high differences indicate a high degree of pulmonary oedema.\nMice were treated as described in Example 2. The test compound was compound (A) (i.e. 1,3-benzothiazol-2-yl(2-{[4-(morpholin-4-ylmethyl)benzyl]-oxy}pyrimidin-4-yl)aceto-nitrile). […] The lung dry and wet weight differences were calculated and graphically reported in FIG. 2. which illustrates the outcome of the assay for the test compound (A)."}, "[3]": {"test_system": "bleomycin-induced lung fibrosis", "assay": "Determination of bleomycin-induced pulmonary fibrosis (histological scoring)", "assay_type": "in vivo, mice", "protocol": "as §1\nInjection of bleomycin in mice induces focal fibrotic lesions with thickened intra-alveolar septa, collapse of alveolar septa as well as massive infiltration of lymphocytes into the lung interstitium. Such focal fibrotic lesions are histologically determined on day 17 after bleomycin administration.\nMice were treated as described in Example 2. […] Morphological evaluation of bleomycin-induced lung inflammation and fibrosis was performed using a semiquantitative scoring method consisting in a visual evaluation of histological section photos in which the surface of the fibrotic part of the lung is evaluated compared to the total surface. […]"}, "[4]": {"test_system": "bleomycin-induced lung fibrosis", "assay": "Determination of bleomycin-induced lung collagen content (hydroxyproline)", "assay_type": "in vivo, mice", "settings": "7 mg/kg orally, day 17, p=0.009", "protocol": "as §1\nThe objective of the present assay is to determine the reduction in lung fibrosis by specifically measuring the hydroxyproline content in the lungs of bleomycin-treated mice. Hydroxyproline is an amino acid component necessary for the build-up of collagen. The quantification of hydroxyproline in the lung after collagen hydrolysis is therefore seen as a suitable indicator for lung collagen content.\nMice were treated as described in Example 2. At day 17 of instillation, the animals were euthanized, and both lungs were removed. Total lung collagen was determined by analysis of hydroxyproline. Briefly, lungs were homogenized in Tris-HCl, pH 7.6, with a Tissue Tearor followed by incubation in Amberlite overnight at 115° C. […] Samples were cooled for 10 min and read at 560 nm on spectrophotometer. […]"}},
  "data": [
    {"smiles": "N#CC(c1ccnc(OCc2ccc(CN3CCOCC3)cc2)n1)c1nc2ccccc2s1", "note": "(stereo not shown) [test compound (A), 1,3-benzothiazol-2-yl(2-{[4-(morpholin-4-ylmethyl)benzyl]-oxy}pyrimidin-4-yl)acetonitrile]", "values": [
      {"measurement": "reduction of the loss of body weight induced by bleomycin", "setting": "[1]; 2 mg/kg orally daily, day 17", "value": "about 30%"},
      {"measurement": "body weight course", "setting": "[1]; bleomycin instilled, oral daily treatment, day 5 to day 17, versus saline-treated mice", "value": "stabilization of their body weight"},
      {"measurement": "pulmonary oedema (lung wet/dry weight difference) compared with saline-treated mice", "setting": "[2]; 2 mg/kg orally, day 17, p=0.016", "value": "significant reduction"},
      {"measurement": "pulmonary oedema (lung wet/dry weight difference) compared with saline-treated mice", "setting": "[2]; 7 mg/kg orally, day 17, p=0.009", "value": "significant reduction"},
      {"measurement": "bleomycin-induced lung fibrosis, histological scoring of fibrotic lesions compared with saline-treated mice", "setting": "[3]; 7 mg/kg orally, day 17, p=0.016", "value": "significantly reduced"},
      {"measurement": "bleomycin-induced lung fibrosis, histological scoring of fibrotic lesions compared with saline-treated mice", "setting": "[3]; 20 mg/kg orally, day 17, p=0.009", "value": "significantly reduced"},
      {"measurement": "lung hydroxyproline content compared with saline-treated mice", "setting": "[4]", "value": "significantly lower"}
    ]}
  ]
}
